Measurements taken from patent publication US10478436B2, “Application of 5-HT6 receptor antagonists for the alleviation of cognitive deficits of down syndrome” (The University of Utah Research Foundation, priority 2011, dated 2019).
Entries after “also recorded” stand apart in the source; their conditions may differ.

Assays:
rat 5-HT6 receptor = rat 5-HT6 receptor (Rattus norvegicus, UniProt P31388); settings: cited from earlier work
[1] = target: human recombinant and native 5-HT6 receptors (Homo sapiens, UniProt P50406); settings: cited from earlier work
Ts65Dn mice = test: Exploratory paradigm: ability to recognize a novel object in a novel location (discrimination ratio), Ts65Dn Down syndrome mice; format: in vivo, mouse; settings: for cognition (discrimination ratio) compared to treatment with vehicle alone: Ts65Dn mice; for cognition (discrimination ratio) compared to treatment with vehicle alone / cognitive performance (discrimination ratio) compared to no treatment / vehicle alone: 10 mg/kg i.p.; for cognitive performance (discrimination ratio) compared to no treatment / vehicle alone: 9-month-old Ts65Dn mice
Description: […] Animals were kept on a 12 hour light/dark cycle and experimentation was conducted during the light portion of the cycle. Animals had unlimited access to food and water. All animals used were housed individually to limit the interference of social interaction on cognitive test performance. Animal care and experimental testing procedures conformed to NIH, IACUC, and AALAC standards and protocols.
(§1) Ts65Dn are compared to their control littermates for the effects of excipients and compounds in altering the performance and rescue of deficits in the Ts65Dn DS mouse model.
The apparatus for these experiments consisted of a 40 cm×40 cm Plexiglas box with clear walls and a dark grey floor. The box was placed on a circular white table 1 m in diameter. Four distinct, approximately 20 cm×20 cm black and white shapes were placed 30 cm away from the midpoint of each side of the box. Objects were made from various washable, non-porous materials (plastic, metal, glass, etc.), 2-7 cm in height and varied in color, pattern and texture. To prevent odor cues, all apparatus and objects were disinfected and deodorized with HDQ after each use.
The experimental paradigms utilized the inherent tendency of rodents to differentially explore novel stimuli over familiar stimuli. Exploration was defined as any investigative behavior where mice have active and direct contact with an object. Such behaviors included head orientation and sniffing within <1.0 cm of the object, pawing, biting, or crawling over the objects. Exploration was recorded with an overhead video camera and the duration of exploration was measured with a stopwatch. The week prior to testing, all animals were handled in daily sessions and given an opportunity to habituate to the clear or red apparatus. Each experimental session presented the animal with new object sets and tests were separated by a minimum 48 hour interval. It should be noted that order effects are not normally observed in exploration tasks. Each test consisted of a Habituation Phase, during which mice display reduced exploration over time as a function of habituation, and a Test Phase on novelty detection that is interpreted to reflect recognition memory.
For each of the 7 compounds 1-7, the compound was administered to Ts65Dn mice via i.p. injection at a concentration of 3.0 mg/kg (compound 1) or 10 mg/kg (compounds 2, 3, 4, 5, 6, and 7) body weight delivered in a vehicle of methyl cellulose+0.2% tween 80 solution, while additional Ts65Dn mice were administered with vehicle alone. Each animal received a volume (ml) of drug in vehicle equal to 1% of its body weight (g) or an equal volume of vehicle alone. Forty minutes after the compound is injected, the Habituation phase begins. Therefore, the Test phase occurs 60 minutes after administration of the drug.
For each experiment the animal was placed in center of the clear acrylic box and presented with two different objects spaced 15 cm apart for 15 minutes of free explorations of the apparatus, stimulus objects, and distal environmental cues (Habituation Phase). After the Habituation Phase, a black container was placed over the mouse for a 5-minute Delay. During this delay, one object was exchanged with a new, unfamiliar object in a novel location (novel object), while the other object is replaced with an identical object in the same location (familiar object). Following the delay the black container was removed, beginning the Test Phase and the mouse is allowed to re-explore for 5 minutes (Test Phase).
The duration of exploration of the Novel and Familiar stimuli during the Test Phase was individually measured with stopwatches, rounding to the 0.5 second. […] A zero score would reflect no preference for either the novel or familiar object. A positive score reflects a preference for exploration of the novel object, and is associated with the animal's level of hippocampal function and memory or cognition. […]

mouse 5-HT6 receptor = mouse 5-HT6 receptor (Mus musculus, UniProt Q9R1C8); settings: cited from earlier work
18 other receptors = settings: concentration of 10 μM; cited from earlier work
5-HT6 receptor [2] = target: T1, 5-HT6 receptor (Homo sapiens, UniProt P50406); settings: cited from earlier work
5-HT6 receptor [3] = target: T1, 5-HT6 receptor; settings: Arnt et al. (2010); cited from earlier work
[4] = test system: scopolamine-induced memory deficits; settings: Mitchell and Neumaier (2008); cited from earlier work
[5] = Hirst et al. (2006); cited from earlier work
control mice = test: Exploratory paradigm: ability to recognize a novel object in a novel location (discrimination ratio), control littermates; format: in vivo, mouse; settings: 3.0 mg/kg i.p.
Description: Male Ts65Dn/DnJ mice and male littermates were obtained from a commercial supplier (Jackson Laboratory, Bar Harbor, Me.), and tested at approximately 12-32 weeks of age, at a weight of 25-30 grams. Animals were kept on a 12 hour light/dark cycle and experimentation was conducted during the light portion of the cycle. Animals had unlimited access to food and water. All animals used were housed individually to limit the interference of social interaction on cognitive test performance. Animal care and experimental testing procedures conformed to NIH, IACUC, and AALAC standards and protocols.
as §1
The apparatus for these experiments consisted of a 40 cm×40 cm Plexiglas box with clear walls and a dark grey floor. The box was placed on a circular white table 1 m in diameter. […]
The experimental paradigms utilized the inherent tendency of rodents to differentially explore novel stimuli over familiar stimuli. […] Exploration was recorded with an overhead video camera and the duration of exploration was measured with a stopwatch. […]
The duration of exploration of the Novel and Familiar stimuli during the Test Phase was individually measured with stopwatches, rounding to the 0.5 second. […]

[6] = Test phase 60 minutes after administration

mouse 5-HT6 receptor, sequence (Q9R1C8 whole entry): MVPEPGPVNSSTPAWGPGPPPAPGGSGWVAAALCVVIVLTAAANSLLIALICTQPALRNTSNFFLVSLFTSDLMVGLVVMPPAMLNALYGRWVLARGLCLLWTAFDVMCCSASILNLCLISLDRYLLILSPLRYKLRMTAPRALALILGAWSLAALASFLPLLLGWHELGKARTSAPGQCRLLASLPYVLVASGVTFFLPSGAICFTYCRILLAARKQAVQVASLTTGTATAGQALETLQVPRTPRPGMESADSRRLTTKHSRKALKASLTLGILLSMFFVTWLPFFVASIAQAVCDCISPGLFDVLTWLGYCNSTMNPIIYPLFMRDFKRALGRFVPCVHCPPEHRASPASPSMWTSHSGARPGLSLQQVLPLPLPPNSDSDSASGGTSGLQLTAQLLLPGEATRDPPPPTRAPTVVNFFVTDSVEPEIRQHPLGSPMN
T1 sequence (P50406 whole entry): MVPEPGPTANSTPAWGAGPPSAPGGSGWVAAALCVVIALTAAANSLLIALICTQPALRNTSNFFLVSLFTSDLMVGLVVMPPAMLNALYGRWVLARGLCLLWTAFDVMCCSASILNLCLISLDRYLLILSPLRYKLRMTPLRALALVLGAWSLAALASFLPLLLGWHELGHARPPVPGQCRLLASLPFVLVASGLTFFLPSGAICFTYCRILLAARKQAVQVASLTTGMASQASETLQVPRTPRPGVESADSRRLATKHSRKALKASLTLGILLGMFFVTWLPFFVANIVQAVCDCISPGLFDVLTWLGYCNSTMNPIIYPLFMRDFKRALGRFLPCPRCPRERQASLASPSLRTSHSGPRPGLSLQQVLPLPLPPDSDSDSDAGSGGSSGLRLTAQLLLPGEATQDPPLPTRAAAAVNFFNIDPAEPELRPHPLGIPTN
human recombinant and native 5-HT6 receptors, sequence (P50406 whole entry): as above
rat 5-HT6 receptor, sequence (P31388 whole entry): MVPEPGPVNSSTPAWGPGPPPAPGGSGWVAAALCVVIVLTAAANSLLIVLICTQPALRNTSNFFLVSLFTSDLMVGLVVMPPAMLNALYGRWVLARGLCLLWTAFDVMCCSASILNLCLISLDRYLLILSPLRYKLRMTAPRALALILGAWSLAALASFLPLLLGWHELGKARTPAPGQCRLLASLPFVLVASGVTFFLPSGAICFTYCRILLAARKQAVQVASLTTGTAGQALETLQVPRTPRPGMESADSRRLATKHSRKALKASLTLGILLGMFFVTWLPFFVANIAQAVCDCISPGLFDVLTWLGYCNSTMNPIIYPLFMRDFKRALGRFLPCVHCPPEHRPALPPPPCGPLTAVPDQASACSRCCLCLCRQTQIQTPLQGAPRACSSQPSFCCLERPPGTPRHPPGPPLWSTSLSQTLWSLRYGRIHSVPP

In the case of `CNc1cc(NS(=O)(=O)c2ccc(N)cc2)nc(NC)n1` [compound 5, 4-amino-N-(2,6-bis(methylamino)pyrimidin-4-yl)benzenesulfonamide], the “recognition of the rat 5-HT6 receptor” value (rat 5-HT6 receptor) is listed as “recognizes the rat”, the “binding to the human 5-HT6 receptor” value [1] is listed as “binds the human” and the “cognition (discrimination ratio) compared to treatment with vehicle alone” value (shortened to “cognition (discrimination ratio)”) (Ts65Dn mice; Test phase 60 minutes after administration, 10 mg/kg) is listed as “does not restore cognition; also recorded: does not improve cognition; also recorded: lack of response; also recorded: did not alter the cognitive abilities”. For the same compound, the “binding to the mouse 5-HT6 receptor” value (mouse 5-HT6 receptor) was “does not bind; also recorded: does not recognize”.
With `O=S(=O)(c1cccc2ccccc12)n1ccc2ccc(N3CCN4CCCC4C3)cc21` (stereo not shown) [compound 3, 2-(1-(naphthalen-1-ylsulfonyl)-1H-indol-6-yl)octahydropyrrolo[1,2-a]pyrazine] the “cognition (discrimination ratio)” value (Ts65Dn mice; [6]) was “significantly increased”.
For `O=S(=O)(c1ccccc1)c1cnc2c(N3CCNCC3)cccc2c1` [compound 7, 3-(phenylsulfonyl)-8-(piperazin-1-yl)quinoline], the “cognitive performance (discrimination ratio) compared to no treatment / vehicle alone” value (Ts65Dn mice) was “significantly improves”.
For `Cc1ccc2c(c1)c1c(n2CCc2ccc(C)nc2)CCN(C)C1` [dimebolin], the “inhibition of 18 other receptors” value (18 other receptors) is given as 50% and the “ability to bind as 5-HT6 receptor antagonist” value (5-HT6 receptor [2]) is given as “approximately 20 times weaker”.
In the case of `Fc1ccc2c(CCNCc3cccc(OCC(F)(F)C(F)F)c3)c[nH]c2c1` [compound 6, 2-(6-fluoro-1H-indol-3-yl)-N-(3-(2,2,3,3-tetrafluoropropoxyl)benzyl)ethanamine], the “5-HT6 receptor agonist activity” value (5-HT6 receptor [3]) is given as “no agonist activity” and the “cognitive performance (discrimination ratio) compared to no treatment / vehicle alone” value (Ts65Dn mice) is given as “significant increase”.
In the case of `COc1ccc2[nH]c(-c3ccccc3)c(CCN(C)C)c2c1` [compound 2, 2-(5-methoxy-2-phenyl-1H-indol-3-yl)-N,N-dimethylethanamine], the “effect on scopolamine-induced memory deficits” value [4] is listed as “reverse” and the “cognition (discrimination ratio)” value (Ts65Dn mice; [6]) is listed as “significantly improves”.
In the case of `CN1CCC(c2cn(C)c3ccc(OS(=O)(=O)c4c(F)cccc4F)cc23)CC1` [compound 4, 1-methyl-3-(1-methylpiperidin-4-yl)-1H-indol-5-yl 2,6-difluorobenzenesulfonate], the “cognition (discrimination ratio)” value (Ts65Dn mice; [6]) is reported as “trend to increased discrimination ratios”.
In the case of `COc1ccc(S(=O)(=O)Nc2cc(Cl)cc(Cl)c2OC)cc1N1CCNCC1` [compound 1, N-(3,5-dichloro-2-methoxyphenyl)-4-methoxy-3-(piperazin-1-yl)benzenesulfonamide], the brain penetration [5] is given as “brain penetrant”, the oral activity [5] is given as “orally active” and the “mean discrimination ratio, compound+vehicle vs. vehicle alone” value (control mice) is given as “did not respond differently”. For the same compound, the “mean discrimination ratio compared to no treatment or treatment with vehicle alone” value (Ts65Dn mice; 3 to 4 month-old Ts65Dn mice, 3.0 mg/kg i.p., Test phase 60 minutes after administration) was “significant increase”, the “discrimination ratio compared to no treatment or treatment with vehicle alone” value (Ts65Dn mice; 8-month-old Ts65Dn mice, 3.0 mg/kg i.p.) was “significantly increased” and the “persistence of the treatment effect on mean discrimination ratio” value (Ts65Dn mice; 8-month-old Ts65Dn mice, tested two weeks after the treatment experiments) was “did not last”.
